Assays:
[1] = docetaxel powder dissolution test, 25 mL water in beaker; assay type: physicochemical; conditions: for maximum docetaxel concentration reached / maximum docetaxel in solution, % of total docetaxel present: ±6 mg docetaxel
Procedure: An amount of powder, equal to approximately 6 mg Docetaxel, was placed in a 50 mL beaker. A magnetic stirring bar and 25 mL water were added to the beaker. The solution was stirred at 720 rpm, and kept at approximately 37° C. Samples were collected at various timepoints, and filtrated using a 0.45 μm filter before they were diluted with a 1:4 v/v mixture of methanol and acetonitrile. The filtrated and diluted samples were subsequently analyzed by HPLC-UV (see table 15).

[2] = clinical phase I trial, docetaxel plasma pharmacokinetics; assay type: in vivo, human; conditions: 20 mg docetaxel liquid formulation; 100 mg ritonavir at t=0 plus 100 mg 4 hours after docetaxel; patient 306
Procedure: 10 patients participated in an ongoing clinical phase I trial.
These patients were given medication which consisted of a liquid formulation of docetaxel or a solid composition comprising a solid dispersion of docetaxel, PVP-K30 and SDS (referred to hereinafter as MODRA).
Docetaxel dose: 30 mg for all patients (with the exception of patient 306 who received 20 mg docetaxel). The 30 mg dose was prepared as follows: 3.0 mL Taxotere® premix for intravenous administration (containing 10 mg docetaxel per ml in polysorbate 80 (25% v/v), ethanol (10% (w/w), and water) was mixed with water to a final volume of 25 mL. This solution was orally ingested by the patient with 100 mL tap water.
Docetaxel dose: 30 mg; 2 capsules with 15 mg docetaxel per capsule were ingested. Formulation E from the previous example (1/11 docetaxel, 9/11 PVP-K30 and 1/11 SDS) was selected for further testing in the clinical trial. A new batch of formulation E was produced by dissolving 1200 mg docetaxel anhydrate in 120 mL of t-butanol, and 10800 mg PVP-K30 and 1200 mg SDS (see table 13) in 80 mL of Water for Injection. The docetaxel/t-butanol solution was added to the PVP-K30/SDS/WfI solution under constant stirring. […]
The bioavailability of the MODRA capsules was calculated by: […]

| SMILES | time at which equilibrium concentration is reached [1] | time of stirring to maximum concentration ([1]; 25 mL WfI, 37° C., 720 rpm) | equilibrium docetaxel in solution, % of total docetaxel present ([1]; after precipitation) | equilibrium docetaxel concentration ([1]; after precipitation, 25 mL WfI, 37° C., 720 rpm) | maximum docetaxel concentration reached ([1]; 25 mL WfI, 37° C., 720 rpm) | maximum docetaxel in solution, % of total docetaxel present ([1]; 25 mL WfI, 37° C., 720 rpm) | solubility from 10 to 60 minutes ([1]; 10 to 60 minutes) | fold increase of docetaxel AUC by second boosting dose of ritonavir [2] |
| --- | --- | --- | --- | --- | --- | --- | --- | --- |
| CC(=O)O[C@@]12CO[C@@H]1C[C@H](O)[C@@]1(C)C(=O)[C@H](O)C3=C(C)[C@@H](OC(=O)[C@H](O)[C@@H](NC(=O)OC(C)(C)C)c4ccccc4)C[C@@](O)([C@@H](OC(=O)c4ccccc4)[C@H]21)C3(C)C [Formulation A, Anhydrous Docetaxel] | 15 min | 5 min | ~2% | approximately 6 μg/mL | approximately 12 μg/mL | ~4.7% |  |  |
| CC(=O)O[C@@]12CO[C@@H]1C[C@H](O)[C@@]1(C)C(=O)[C@H](O)C3=C(C)[C@@H](OC(=O)[C@H](O)[C@@H](NC(=O)OC(C)(C)C)c4ccccc4)C[C@@](O)([C@@H](OC(=O)c4ccccc4)[C@H]21)C3(C)C [Formulation B, Amorphous Docetaxel] |  | 0.5 min |  |  | 32 µg/mL | 13% | comparable to formulation A |  |
| CC(=O)O[C@@]12CO[C@@H]1C[C@H](O)[C@@]1(C)C(=O)[C@H](O)C3=C(C)[C@@H](OC(=O)[C@H](O)[C@@H](NC(=O)OC(C)(C)C)c4ccccc4)C[C@@](O)([C@@H](OC(=O)c4ccccc4)[C@H]21)C3(C)C [docetaxel] |  |  |  |  |  |  |  | 1.5 fold |

Source: patent publication US20110207804A1, “COMPOSITIONS FOR THE TREATMENT OF NEOPLASTIC DISEASES” (Slotervaart Participaties BV, priority 2008, published 2011)
